Data set [1] concerns Hsp70 in primary cortical neurons. Nature of the data set: Hsp70 up-regulation in neuronal cells (immunoblot). It is filed as cell-based, rat. The protocol: Inhibition of Hsp90 induces overexpression of both Hsp90 and Hsp70 through dissociation of Hsp90-HSF-1 complexes and subsequent translocation of HSF-1 to the nucleus. […] Thus, in this example, an immunoblot analysis of neuronal cells was performed for Hsp70.
Primary cortical neurons were prepared as described herein. Cells were incubated (37° C. in 5% CO2) with the indicated concentrations of GA or KU-1/A4 for 24 or 48 hours. Cells were washed three times with phosphate buffered saline (PBS), followed by addition of a cell lysis buffer (50 mM Tris-HCL, 150 mM NaCl, 5 mM EDTA, 5 mM EGTA, 1% NP40, 10% Glycerol, 1 mM Na3VO4, 10 mM sodium molybdate, 40 mM NaF, and 10 ul/ml of Calbiochem protease inhibitor cocktail III). Cells were collected by scraping the dishes and aspirating all contents. […] The membranes were probed with the indicated primary HSP70 antibody (1:500, Upstate Biotechnology) and immunoreactive proteins detected using the Lumiglo Western Blot Protein Detector Kit (KPL). The immunoblots were scanned using a Kodak Image Station 2000R to determine the pixel density of the bands and imported into Photoshop and analyzed as described in Zaidi et al., Oxidative inactivation of purified plasma membrane Ca2+-ATPase by hydrogen peroxide and protection by calmodulin, Biochem. 42 12001-12010 (2003). All blots were re-probed with antibodies to β-actin I-19R (Santa Cruz) as a loading control and the data are presented as the ratio of Hsp70 to actin in each lane. Cells from at least three separate cultures for each treatment condition were examined, and the significance of differences in the immunoreactivities of the bands observed under the various treatment conditions was assessed by Student's t-test for unpaired samples.
In general terms: In western blotting, separated proteins are transferred to a membrane and probed.

Data set [2] concerns SkBr3 (Her2 overexpressing breast cancer cells). The data set is described as follows: Anti-proliferation activity against SkBr3 cells (MTS/PMS). It counts as cell-based. The conditions noted are these: up to 100 μM. In short, it runs like this: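 Cells seeded at 2000/well, attached overnight, then exposed to compound at varying concentrations (1% DMSO final) for 72 hours at 37° C. Viable cells read by MTS/PMS, normalised to 1% DMSO as 100% proliferation. IC50 from separate triplicate experiments.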

For data set [3], the system named is bovine microvessel endothelial cells (BMECs). The data set is described as follows: Transport across BMEC monolayers in vitro. It is filed as in vitro ADME. The protocol: In this example, BMECs were grown on 0.4 μm polycarbonate membranes in a petri dish coated with rat tail collagen and fibronectin. […] Briefly, each chamber was filled with 3 mL of PBSA and the donor chamber included KU-1/A4 (10 μM). A temperature of 37° C. was maintained with an external circulating water bath and chamber contents were stirred with Teflon coated magnetic stir bars driven by an external console. At various time points (5, 15, 30, 45, and 90 minutes), 100 μL aliquots were removed from the receiver side and replaced with 100 μL of blank PBSA warmed to 37° C. Samples of the donor solution were also taken for analysis. All samples were analyzed for concentration by RP-HPLC analysis using a Shimadzu dual pump HPLC system equipped with an Alltech (C18, 4.6 mm×150 mm) column. The solvent system consisted of H2O (solvent A) and methanol (solvent B). Analytical samples were eluted with 20% solvent B over 10 minutes at a flow rate of 0.90 mL/min and UV detection at 208 nm. […] The integrity of the cell monolayer was tested post experiment by monitoring the permeability of [^14C]-sucrose, a low permeability marker. Radioactive samples were analyzed by liquid scintillation counting.

Some results are limits rather than exact numbers.

For the molecule `CO[C@@H]1[C@@H](O)[C@@H](O)[C@H](Oc2ccc3cc(NC(C)=O)c(=O)oc3c2)OC1(C)C` [KU-1/A4, N-(7-((2R,3R,4S,5R)-3,4-dihydroxy-5-methoxy-6,6-dimethyl-tetrahydro-2H-pyran-2-yloxy)-2-oxo-2H-chromen-3-yl)acetamide], in data set [1] (0.2 μM, 48 hours), the “Hsp70 levels (ratio of Hsp70 to actin)” value is reported as “significantly increased Hsp70 levels”. The “lowest concentration leading to increases in Hsp70 levels” value in data set [1] (48 hours, compared to DMSO controls) was found to be 1 nM. In addition, the Hsp70 levels result in data set [1] (higher concentrations (1 and 10 μM)) is reported as “did not significantly increase Hsp70 levels”. For the same molecule, in data set [2], the “anti-proliferative effects SkBr3” value is reported as “no anti-proliferative effects”. The “time until abluminal chamber concentration sufficed for full neuroprotective effects” value in data set [3] (10 μM in donor chamber) is no more than 15 min. Besides, the “concentration in the receiving chamber” value in data set [3] (10 μM in donor chamber, 90 minutes) stood at 1200 nM. Moreover, the “transport across BMECs” value in data set [3] (10 μM in donor chamber, up to 90 minutes) is on record as “time-dependent linear transport”. Besides, the “receiving chamber concentration relative to concentration for 50% neuroprotection” value in data set [3] (90 minutes) worked out at 200 fold.
